The results in this text go back to patent US8304427B2, “Acylthiourea compound or salt thereof, and use thereof” (Taiho Pharmaceutical Co., Ltd., priority 2008, dated 2012).

Like-named read-outs stand apart in the source and are kept apart here. Some results are limits rather than exact numbers.

The target of assay [1] is T1, c-Met (Homo sapiens, UniProt P08581). Nature of the assay: c-Met inhibitory assay using DeskTop Profiler (Method B). More on the design: made in house. As to conditions: ATP 43 μM. It is filed as biochemical. Here is the method:
Method B) c-Met Inhibitory Assay Using DeskTop Profiler
A dephosphorylation enzyme inhibitor cocktail (PhosSTOP, #4906837, product of Roche) and a protease inhibitor cocktail (Complete, Mini, EDTA-free, #1836170; product of Roche) were added to a reaction buffer (100 mM HEPES (pH: 7.5), 10 mM MgCl2, 0.003% Brij-35, 0.04% Tween, and 1 mM DTT). In the presence of the compound of the present invention, recombinant c-Met (purified product of Taiho Pharmaceutical Co., Ltd.), fluorescence-labeled c-Met substrate peptide (FL-Peptide 2, #760346, Caliper Life Sciences) (final concentration: 1.5 μM), and ATP (final concentration: 43 μM) were added thereto, and the mixture was allowed to react at 28° C. for 90 minutes. EDTA was added to the reaction mixture to a final concentration of 10 mM, to thereby terminate reaction. By use of DeskTop Profiler (#119900, Caliper Life Sciences), each fluorescence intensity of the substrate and that of the phosphorylated product was determined, whereby the amount of the formed phosphorylated product was determined. The compound concentration that realizes 50% inhibition of formation of phosphorylated product was defined as IC50 (μM), and the results are shown in the following Tables.
Target sequence in this assay (P08581 25-1390): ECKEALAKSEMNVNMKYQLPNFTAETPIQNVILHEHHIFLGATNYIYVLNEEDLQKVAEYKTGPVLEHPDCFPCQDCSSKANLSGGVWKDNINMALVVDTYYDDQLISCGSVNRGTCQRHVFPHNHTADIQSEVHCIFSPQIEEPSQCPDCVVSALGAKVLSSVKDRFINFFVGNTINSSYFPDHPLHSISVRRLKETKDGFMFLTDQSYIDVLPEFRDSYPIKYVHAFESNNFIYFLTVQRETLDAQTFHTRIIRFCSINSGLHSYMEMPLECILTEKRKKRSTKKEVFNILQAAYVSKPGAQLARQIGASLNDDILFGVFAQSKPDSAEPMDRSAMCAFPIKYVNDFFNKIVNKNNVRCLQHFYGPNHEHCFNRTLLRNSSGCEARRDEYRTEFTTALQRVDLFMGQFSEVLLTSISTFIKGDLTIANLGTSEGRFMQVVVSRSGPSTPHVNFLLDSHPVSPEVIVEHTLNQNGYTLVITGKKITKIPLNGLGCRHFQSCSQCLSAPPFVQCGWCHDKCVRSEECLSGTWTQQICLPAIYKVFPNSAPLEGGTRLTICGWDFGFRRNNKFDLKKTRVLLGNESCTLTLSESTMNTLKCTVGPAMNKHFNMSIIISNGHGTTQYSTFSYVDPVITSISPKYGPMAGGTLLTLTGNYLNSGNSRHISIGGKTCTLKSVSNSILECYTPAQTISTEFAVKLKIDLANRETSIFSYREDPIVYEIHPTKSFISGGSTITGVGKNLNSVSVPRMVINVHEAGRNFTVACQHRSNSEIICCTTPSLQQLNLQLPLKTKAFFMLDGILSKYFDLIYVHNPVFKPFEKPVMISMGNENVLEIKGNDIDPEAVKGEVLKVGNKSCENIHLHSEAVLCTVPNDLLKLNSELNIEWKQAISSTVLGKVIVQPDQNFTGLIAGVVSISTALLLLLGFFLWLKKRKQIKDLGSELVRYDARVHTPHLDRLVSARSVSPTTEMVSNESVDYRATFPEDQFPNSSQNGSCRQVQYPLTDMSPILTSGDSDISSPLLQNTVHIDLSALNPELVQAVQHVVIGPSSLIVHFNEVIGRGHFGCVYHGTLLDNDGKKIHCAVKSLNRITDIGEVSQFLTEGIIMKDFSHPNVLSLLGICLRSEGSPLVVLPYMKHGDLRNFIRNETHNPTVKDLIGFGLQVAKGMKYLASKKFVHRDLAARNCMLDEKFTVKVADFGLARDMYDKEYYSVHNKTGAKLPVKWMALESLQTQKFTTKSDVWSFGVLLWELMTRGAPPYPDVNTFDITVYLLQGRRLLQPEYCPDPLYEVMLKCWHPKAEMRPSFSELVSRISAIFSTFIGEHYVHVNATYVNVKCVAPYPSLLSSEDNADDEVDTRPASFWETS

Assay [2] relates to HCT-116. As to the kind of experiment: Cell proliferation inhibition test against c-Met low expressing tumor cells (HCT-116). The format is cell-based. As to conditions: for IC50: Homo sapiens, read-out: IC50 HCT-116; for ratio HCT-116: IC50 HCT-116 relative to IC50 NUGC4.
The subject of assay [3] is NUGC4 cells. Nature of the assay: Cell-proliferation inhibitory assay against NUGC4 cells (Crystal Violet). It is filed as cell-based. As to conditions: Homo sapiens, NUGC-4, 72 h; NUGC4, cancer, c-Met status (+), 3 days. Here is the method:
Cell-Proliferation Inhibitory Assay Against NUGC4 Cells (Human Gastric Cancer Cell Strain in Which c-Met is Over-Expressed and Highly Activated), In Vitro Test
NUGC4 cell suspension (in a 10% FBS-containing RPMI 1640 medium (product of Wako Pure Chemical Industries Ltd.) or a FBS-containing DMEM medium (product of Nacalai Tesque, Inc.)) was inoculated to each well of a 96-well (flat-bottom) microplate in an amount of 2×10^3 cells (0.1 mL), and the plate was incubated in an incubator under 5% CO2 gas atmosphere at 37° C. for one day. Each of the compounds of the present invention and comparative compound 1 was dissolved in dimethyl sulfoxide to a concentration of 30 mM. The solution was diluted with 10% FBS-containing RPMI 1640 or DMEM medium, to a final test compound concentration of 60, 20, 6, 2, 0.6, or 0.2 μM. The thus-prepared test compound solution was added to each well of the NUGC4 cell culture plate at 0.1 mL/well, and the plate was incubated in an incubator under 5% CO2 gas atmosphere at 37° C. for 3 days. After culturing, 25% aqueous glutaraldehyde solution (product of Nacalai Tesque, Inc.) was added to each well at 20 μL, and the plate was left to stand at room temperature for 20 minutes, whereby cells were fixed. Thereafter, the plate was washed with tap water and dried. Then, aqueous 0.05% Crystal Violet/20% methanol solution (product of Wako Pure Chemical Industries Ltd.) was added to each well at 100 μL/well, and the plate was left to stand at room temperature for 20 minutes, whereby cells were stained. Thereafter, the plate was washed with tap water and dried. To each well, 0.05 M NaH2PO4/ethanol (1/1=v/v) (100 μL) was added, to thereby extract Crystal Violet. The absorbance of the extracted Crystal Violet was measured at 540 nm using a microplate reader, and the absorbance was employed as an index for living cell count. Percent inhibition was calculated by the following equation, and the 50% inhibition test compound concentration (IC50 (μM)) was calculated. Percent inhibition (%)=(C−T)/C×100 • T: Absorbance of well to which a test compound was added • C: Absorbance of well to which no test compound was added

The target in assay [4] is T1, c-Met. As to the kind of experiment: c-Met inhibitory assay using AlphaScreen (Method A). It is filed as biochemical. Conditions: ATP 20 μM. Further details: purchased Carna bio Co., Ltd 08-051. The protocol: Inhibitory activity of compounds against c-Met kinase was determined through the following procedures. Method A) c-Met inhibitory assay using AlphaScreen™
A biotinylated peptide including a phosphorylated site of Pyk2 (Tyr402), which is reported as a bio-substrate in Clin. Cancer Res. vol. […] The mixture was allowed to react at room temperature for 20 minutes. EDTA was added to the reaction mixture to a final concentration of 50 mM, to thereby terminate reaction. […] The reaction was done for one hour at room temperature. Thereafter, the fluorescence intensity from the reaction mixture was measured using a multi-label counter (EnVision™, Perkin Elmer).
Target sequence in this assay (P08581 956-1390 limits assumed): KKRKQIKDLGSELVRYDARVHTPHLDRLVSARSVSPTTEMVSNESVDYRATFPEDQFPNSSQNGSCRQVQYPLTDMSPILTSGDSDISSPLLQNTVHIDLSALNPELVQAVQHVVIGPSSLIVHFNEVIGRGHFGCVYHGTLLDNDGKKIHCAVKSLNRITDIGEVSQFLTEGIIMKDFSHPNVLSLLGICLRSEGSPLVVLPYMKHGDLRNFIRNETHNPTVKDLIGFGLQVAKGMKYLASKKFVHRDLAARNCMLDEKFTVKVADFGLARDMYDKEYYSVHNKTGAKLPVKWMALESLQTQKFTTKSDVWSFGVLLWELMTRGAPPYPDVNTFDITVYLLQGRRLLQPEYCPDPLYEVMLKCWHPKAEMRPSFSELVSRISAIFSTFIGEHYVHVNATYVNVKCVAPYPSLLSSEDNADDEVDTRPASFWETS
On the technique in general: Bead proximity is the source of the signal in Alpha formats.

Setting [5] is: 72 h, HCT-116, cancer, c-Met status (−), 3 days.

By IC50 is commonly meant the point on the concentration scale where inhibition reaches its midpoint. Compound `COCCNC(=O)CNC(=O)c1cc2c(Oc3ccc(NC(=S)NC(=O)Cc4ccccc4)cc3F)ccnc2cc1OC` [Example 33, 4-(2-Fluoro-4-(3-(2-phenylacetyl)thioureido)phenoxy)-7-methoxy-N-(2-(2-methoxyethylamino)-2-oxoethyl)quinoline-6-carboxamide] came in with an IC50 in assay [1] of 12 nM.
The same measure, in the same setting: as for `CCN(CC(C)(C)O)C(=O)CNC(=O)c1cc2c(Oc3ccc(NC(=S)NC(=O)Cc4ccccc4)cc3F)ccnc2cc1OC` [Example 35, N-(2-(Ethyl(2-hydroxy-2-methylpropyl)amino)-2-oxoethyl)-4-(2-fluoro-4-(3-(2-phenylacetyl)thioureido)phenoxy)-7-methoxyquinoline-6-carboxamide], the figure is 31 nM.
Turning to `COc1cc2nccc(Oc3ccc(NC(=S)NC(=O)Cc4ccc(F)cc4)cc3F)c2cc1C(=O)NCCN1CCOCC1` [Example 37, 4-(2-fluoro-4-(3-(2-(4-fluorophenyl)acetyl)thioureido)phenoxy)-7-methoxy-N-(2-morpholinoethyl)quinoline-6-carboxamide], the IC50 in assay [1] is 35 nM; in assay [2] (setting [5]) it was more than 30000 nM; in assay [3], 10 nM. The “ratio HCT-116” value in assay [2] is on record as more than 3000.
In assay [1], `CC[C@@H](CO)NC(=O)c1cc2c(Oc3ccc(NC(=S)NC(=O)Cc4ccc(Cl)cc4)cc3F)ccnc2cc1OC` [Example 43, (S)-4-(4-(3-(2-(4-Chlorophenyl)acetyl)thioureido)-2-fluorophenoxy)-N-(1-hydroxybutan-2-yl)-7-methoxyquinoline-6-carboxamide] came in with an IC50 of 50 nM.
On the same count and under the same terms, then `COc1cc2nccc(Oc3ccc(NC(=S)NC(=O)Cc4ccccc4F)cc3F)c2cc1C(=O)NCC(C)(C)O` [Example 39, 4-(2-Fluoro-4-(3-(2-(2-fluorophenyl)acetyl)thioureido)phenoxy)-N-(2-hydroxy-2-methylpropyl)-7-methoxyquinoline-6-carboxamide], with 29 nM.
In assay [1], `COc1cc2nccc(Oc3ccc(NC(=S)NC(=O)Cc4ccccc4)cc3F)c2cc1C(=O)N(C)C` [Example 50, 4-(2-Fluoro-4-(3-(2-phenylacetyl)thioureido)phenoxy)-7-methoxy-N,N-dimethylquinoline-6-carboxamide] returned an IC50 of 139 nM.
For the compound `CC[C@@H](CO)NC(=O)c1cc2c(Oc3ccc(NC(=S)NC(=O)Cc4ccc(F)cc4)cc3F)ccnc2cc1OC` [Example 38, (S)-4-(2-Fluoro-4-(3-(2-(4-fluorophenyl)acetyl)thioureido)phenoxy)-N-(1-hydroxybutan-2-yl)-7-methoxyquinoline-6-carboxamide], the IC50 was 32 nM in assay [1]; more than 30000 nM in assay [2] (HCT-116, 72 h); 40 nM in assay [3]. Besides, the “ratio HCT-116” value in assay [2] is reported as more than 719.
In the case of `CNC(=O)c1cc2c(Oc3ccc(NC(=S)NC(=O)Cc4ccc(C(F)(F)F)cc4)cc3F)ccnc2cc1OC` [Example 47, 4-(2-Fluoro-4-(3-(2-(4-trifluoromethylphenyl)acetyl)thioureido)phenoxy)-7-methoxy-N-methylquinoline-6-carboxamide], the IC50 in assay [1] was 203 nM.
Still for that read-out and setting: as for `COc1cc2nccc(Oc3ccc(NC(=S)NC(=O)Cc4c(F)cccc4F)cc3F)c2cc1C(=O)NCCN1CCOCC1` [Example 44], the figure is 101 nM; as for `CC[C@@H](CO)NC(=O)c1cc2c(Oc3ccc(NC(=S)NC(=O)Cc4ccccc4F)cc3F)ccnc2cc1OC` [Example 40, (S)-4-(2-Fluoro-4-(3-(2-(2-fluorophenyl)acetyl)thioureido)phenoxy)-N-(1-hydroxybutan-2-yl)-7-methoxyquinoline-6-carboxamide], 27 nM; as for `CC[C@@H](CO)NC(=O)c1cc2c(Oc3ccc(NC(=S)NC(=O)Cc4ccccc4)cc3F)ccnc2cc1OC` [Example 31, (S)-4-(2-Fluoro-4-(3-(2-phenylacetyl)thioureido)phenoxy)-N-(1-hydroxybutan-2-yl)-7-methoxyquinoline-6-carboxamide], 26 nM.
Same read-out and setting: then `CNC(=O)c1cc2c(Oc3ccc(NC(=S)NC(=O)Cc4ccccc4)c(F)c3)ccnc2cc1OC` [Example 49, 4-(3-Fluoro-4-(3-(2-phenylacetyl)thioureido)phenoxy)-7-methoxy-N-methylquinoline-6-carboxamide], with 62 nM.
For the compound `COc1cc2nccc(Oc3ccc(NC(=S)NC(=O)Cc4ccccc4)cc3F)c2cc1C(=O)NCC(=O)N1CCC[C@H]1CO` [Example 34, (S)-4-(2-Fluoro-4-(3-(2-phenylacetyl)thioureido)phenoxy)-N-(2-(2-(hydroxymethyl)pyrrolidin-1-yl)-2-oxoethyl)-7-methoxyquinoline-6-carboxamide], the IC50 in assay [1] was 22 nM; in assay [2] (setting [5]), more than 30000 nM; in assay [3], 20 nM. In assay [2], the “ratio HCT-116” value was more than 2000.
In turn, `COc1cc2nccc(Oc3ccc(NC(=S)NC(=O)Cc4ccc(Cl)cc4)cc3F)c2cc1C(=O)NCC(C)(C)O` [Example 42, 4-(4-(3-(2-(4-Chlorophenyl)acetyl)thioureido)-2-fluorophenoxy)-N-(2-hydroxy-2-methylpropyl)-7-methoxyquinoline-6-carboxamide] registered an IC50 in assay [1] of 45 nM.
Same read-out and setting: then `CNC(=O)c1cc2c(Oc3ccc(NC(=S)NC(=O)Cc4ccccc4)cc3Cl)ccnc2cc1OC` [Example 48, 4-(2-Chloro-4-(3-(2-phenylacetyl)thioureido)phenoxy)-7-methoxy-N-methylquinoline-6-carboxamide], with 34 nM.
`COc1cc2nccc(Oc3ccc(NC(=S)NC(=O)Cc4ccccc4)cc3F)c2cc1C(=O)N[C@H](CO)c1ccccc1` [Example 29, (S)-4-(2-Fluoro-4-(3-(2-phenylacetyl)thioureido)phenoxy)-N-(2-hydroxy-1-phenylethyl)-7-methoxyquinoline-6-carboxamide]: in assay [4], the IC50 came out at 234 nM.
`CNC(=O)c1cc2c(Oc3ccc(NC(=S)NC(=O)Cc4cccc(OC)c4)cc3F)ccnc2cc1OC` [Example 46, 4-(2-Fluoro-4-(3-(2-(3-methoxyphenyl)acetyl)thioureido)phenoxy)-7-methoxy-N-methylquinoline-6-carboxamide] registered an IC50 in assay [1] of 85 nM.
Same read-out and setting: then `CC[C@@H](CO)NC(=O)c1cc2c(Oc3ccc(NC(=S)NC(=O)Cc4cccc(F)c4)cc3F)ccnc2cc1OC` [Example 41, (S)-4-(2-Fluoro-4-(3-(2-(3-fluorophenyl)acetyl)thioureido)phenoxy)-N-(1-hydroxybutan-2-yl)-7-methoxyquinoline-6-carboxamide], with 34 nM.
With `COc1cc2nccc(Oc3ccc(NC(=S)NC(=O)Cc4c(F)cccc4F)cc3F)c2cc1C(=O)NCC(C)(C)O` [Example 45], the IC50 in assay [1] was determined as 56 nM.
The same measure, in the same setting: then `COc1cc2nccc(Oc3ccc(NC(=S)NC(=O)Cc4ccccc4)cc3F)c2cc1C(=O)NCCC(=O)N(C)C` [Example 36, N-(3-(Dimethylamino)-3-oxopropyl)-4-(2-fluoro-4-(3-(2-phenylacetyl)thioureido)phenoxy)-7-methoxyquinoline-6-carboxamide], with 52 nM.
